The values below come from PubChem BioAssay AID248 (DTP/NCI, 2004).

The test system of this test is L1210 leukemia ip in BDF1 mice, survival T/C. As to the kind of experiment: NCI In Vivo Anticancer Drug Screen. Data for tumor model L1210 Leukemia (intraperitoneal) in B6D2F1 (BDF1) mice. The note with it: endpoint: mean survival time, higher = longer survival. In a few lines: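 Antitumor effect is assessed in tumor-bearing animals. Survival in the compound arm is compared with a vehicle-dosed control arm and expressed as their quotient.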

The mark [1] stands for this setting: dose: 100.0 mg/kg/injection, schedule: Q01DX001 (ip), vehicle: saline with Tween-80.
Setting [2] is: dose: 200.0 mg/kg/injection, schedule: Q01DX001 (ip), vehicle: saline with Tween-80.
The mark [3] stands for this setting: dose: 400.0 mg/kg/injection, schedule: Q01DX001 (ip), vehicle: saline with Tween-80.
Where [4] appears, read: dose: 100.0 mg/kg/injection, schedule: Q01DX009 (ip), vehicle: saline with Tween-80.
Setting [5] is: dose: 100.0 mg/kg/injection, schedule: Q04DX003 (ip), vehicle: saline with Tween-80.
The mark [6] stands for this setting: dose: 200.0 mg/kg/injection, schedule: Q01DX009 (ip), vehicle: saline with Tween-80.
Where [7] appears, read: dose: 200.0 mg/kg/injection, schedule: Q04DX003 (ip), vehicle: saline with Tween-80.
Where [8] appears, read: dose: 400.0 mg/kg/injection, schedule: Q04DX003 (ip), vehicle: saline with Tween-80.
[9] abbreviates: dose: 100.0 mg/kg/injection, schedule: Q01DX001 (ip), vehicle: carboxymethylcellulose (CMC).
[10] abbreviates: dose: 200.0 mg/kg/injection, schedule: Q01DX001 (ip), vehicle: carboxymethylcellulose (CMC).
Setting [11] is: dose: 400.0 mg/kg/injection, schedule: Q01DX001 (ip), vehicle: carboxymethylcellulose (CMC).
Setting [12] is: dose: 100.0 mg/kg/injection, schedule: Q01DX001 (ip), vehicle: saline.
The mark [13] stands for this setting: dose: 200.0 mg/kg/injection, schedule: Q01DX001 (ip), vehicle: saline.
The mark [14] stands for this setting: dose: 400.0 mg/kg/injection, schedule: Q01DX001 (ip), vehicle: saline.
The mark [15] stands for this setting: dose: 50.0 mg/kg/injection, schedule: Q01DX001 (ip), vehicle: carboxymethylcellulose (CMC).

Where “and” joins values, the source holds several entries; their conditions need not be identical. Identical values can stand only once. Toxic doses and inconclusive results are not listed.

Turning to `NC(N)=N/N=C/c1cccs1`, the T/C was 90 % of control (dose: 15.0 mg/kg/injection, schedule: Q01DX Z (oral), vehicle: saline); 90 % of control (dose: 30.0 mg/kg/injection, schedule: Q01DX Z (ip), vehicle: saline); 92 % of control (dose: 30.0 mg/kg/injection, schedule: Q01DX Z (oral), vehicle: saline); 92 % of control (dose: 60.0 mg/kg/injection, schedule: Q01DX Z (oral), vehicle: saline).

`Clc1sc2ccccc2c1Cl`: the T/C reads like this: (dose: 50.0 mg/kg/injection, schedule: Q01DX009 (ip), vehicle: Klucel (hydroxypropylcellulose) (HPC)) 103 % of control; (dose: 100.0 mg/kg/injection, schedule: Q01DX009 (ip), vehicle: Klucel (hydroxypropylcellulose) (HPC)) 95 % of control.

As for `CCCCCCCCCCC(C)CCCCCCCC` (stereo not drawn), the T/C under setting [1] was 113 % of control, the T/C under setting [2] is 100 % of control and the T/C under setting [3] is 94 % of control.

For `CC(C)Oc1ccc2c(c1)N(CCC1CCCCN1)c1ccccc1S2` (stereo not drawn), the T/C is, setting by setting: (dose: 12.5 mg/kg/injection, schedule: Q01DX009 (ip), vehicle: Klucel (hydroxypropylcellulose) (HPC)) 101 % of control; (dose: 25.0 mg/kg/injection, schedule: Q01DX009 (ip), vehicle: Klucel (hydroxypropylcellulose) (HPC)) 103 % of control.

As for `CCOC(=O)CNC(=O)N(CCCl)N=O`, the T/C is, setting by setting: (dose: 150.0 mg/kg/injection, schedule: Q01DX Z (ip), vehicle: carboxymethylcellulose (CMC)) 102 % of control; (dose: 250.0 mg/kg/injection, schedule: Q01DX Z (ip), vehicle: carboxymethylcellulose (CMC)) 112 % of control.

On to `CCN(CC)CCCC(C)Nc1cc(N)nc2nc(-c3cc(OC)c(OC)c(OC)c3)cnc12` (stereo not drawn) (tested in a mixture with another compound), for which the T/C (dose: 75.0 mg/kg/injection, schedule: Q01DX001 (ip), vehicle: saline) is 87 % of control.

As to `CCOC(=O)CCN(CC(=O)OCC)C(C)C`, the T/C runs as follows: under setting [4], 100 % of control; under setting [5], 100 % of control; under setting [6], 106 % of control; under setting [7], 95 % of control; (dose: 400.0 mg/kg/injection, schedule: Q01DX009 (ip), vehicle: saline with Tween-80) 110 % of control; under setting [8], 103 % of control.

For `C/C(CC(=O)N1CCCCC1)=N\NC(N)=S`, the T/C reads like this: under setting [9], 97 % of control; under setting [10], 103 % of control; under setting [11], 94 % of control.

For `COc1ccc(-c2sc(N)c(C#N)c2C)cc1OC`, the T/C by setting is: under setting [1], 98 % of control; under setting [5], 93 % of control and 97 % of control; under setting [2], 93 % of control; under setting [7], 95 % of control and 90 % of control; under setting [3], 96 % of control; under setting [8], 97 % of control and 102 % of control.

As for `O=C(O)C(=O)Cc1c(Cl)cccc1[N+](=O)[O-]`, the T/C is 104 % of control (dose: 50.0 mg/kg/injection, schedule: Q01DX001 (ip), vehicle: saline); 101 % of control under setting [12]; 106 % of control under setting [13]; 104 % of control under setting [14].

As to `CN(C/C=C/CN(C)P(=S)(N1CC1)N1CC1)P(=S)(N1CC1)N1CC1`, the T/C under setting [9] was 96 % of control, the T/C under setting [10] is 93 % of control and the T/C under setting [11] was 109 % of control.

Regarding `NC(Cc1cc([N+](=O)[O-])ccc1CN(CCCl)CCCl)C(=O)O` (stereo not drawn), the T/C is, setting by setting: (dose: 3.6 mg/kg/injection, schedule: Q04DX003 (ip), vehicle: saline) 161 % of control; (dose: 6.0 mg/kg/injection, schedule: Q01DX001 (ip), vehicle: saline) 198 % of control; (dose: 6.0 mg/kg/injection, schedule: Q04DX003 (ip), vehicle: saline) 158 % of control and 315 % of control; (dose: 10.0 mg/kg/injection, schedule: Q01DX001 (ip), vehicle: saline) 173 % of control and 248 % of control; (dose: 10.0 mg/kg/injection, schedule: Q04DX003 (ip), vehicle: saline) 163 % of control and 352 % of control; (dose: 16.7 mg/kg/injection, schedule: Q01DX001 (ip), vehicle: saline) 302 % of control and 309 % of control. The T/C (dose: 16.7 mg/kg/injection, schedule: Q04DX003 (ip), vehicle: saline) is 151 % of control.

For `C=C(C)c1ccc(C)cc1-c1c(OCc2ccccc2)ccc(CCCCC)c1OC`, the T/C by setting is: (dose: 100.0 mg/kg/injection, schedule: Q01DX001 (ip), vehicle: Klucel (hydroxypropylcellulose) (HPC)) 97 % of control; (dose: 200.0 mg/kg/injection, schedule: Q01DX001 (ip), vehicle: Klucel (hydroxypropylcellulose) (HPC)) 92 % of control; (dose: 400.0 mg/kg/injection, schedule: Q01DX001 (ip), vehicle: Klucel (hydroxypropylcellulose) (HPC)) 92 % of control.

For `COC(=O)c1ccccc1NC(=O)CCl`, the T/C reads like this: under setting [5], 99 % of control; under setting [7], 91 % of control.

With `C/C=C\CCCCCCC`, the T/C was 90 % of control under setting [15], 90 % of control under setting [9], 95 % of control under setting [10] and 90 % of control under setting [11].

As for `COP(=O)(O)CC(C)=O` (tested in a mixture with another compound), the T/C runs as follows: (dose: 100.0 mg/kg/injection, schedule: Q04DX002 (ip), vehicle: saline) 101 % of control; (dose: 200.0 mg/kg/injection, schedule: Q04DX002 (ip), vehicle: saline) 101 % of control; (dose: 400.0 mg/kg/injection, schedule: Q04DX002 (ip), vehicle: saline) 101 % of control.

In the case of `CCOC(=O)C(C)(N)CCOCc1ccccc1` (stereo not drawn), the T/C runs as follows: under setting [15], 100 % of control; under setting [9], 102 % of control; under setting [10], 100 % of control; under setting [11], 104 % of control.

For the molecule `CC1(C)OC(CO)C2OC(C)(C)OC(CO)C2O1` (stereo not drawn), the T/C runs as follows: under setting [9], 98 % of control; under setting [10], 98 % of control; under setting [11], 95 % of control.

As for `CC1(C)CC(=O)C=C(NCc2ccccc2)C1`, the T/C is, setting by setting: (dose: 50.0 mg/kg/injection, schedule: Q01DX009 (ip), vehicle: acetone) 96 % of control; (dose: 100.0 mg/kg/injection, schedule: Q01DX009 (ip), vehicle: acetone) 95 % of control; (dose: 200.0 mg/kg/injection, schedule: Q01DX009 (ip), vehicle: acetone) 101 % of control.

For the molecule `CC(C)(O)c1cnnn1CCC[CH2][Pb]([c]1ccccc1)([c]1ccccc1)[c]1ccccc1`, the T/C was 102 % of control under setting [15], 105 % of control under setting [9], 102 % of control under setting [10] and 96 % of control under setting [11].

On to `COc1ccc2c(c1O)C13CCN(C)C(C2)C1CCC1(C3)OCCO1` (stereo not drawn), for which the T/C under setting [12] is 95 % of control; the T/C (dose: 100.0 mg/kg/injection, schedule: Q01DX009 (ip), vehicle: saline) was 100 % of control; the T/C under setting [13] was 104 % of control; the T/C (dose: 200.0 mg/kg/injection, schedule: Q01DX009 (ip), vehicle: saline) is 103 % of control; the T/C under setting [14] was 98 % of control.

As for `CCOC(=O)C[n+]1ccc(C(=O)c2cc3ccccc3[nH]2)cc1`, the T/C was 93 % of control under setting [4] and 92 % of control under setting [6].

In the case of `CCCCCCCCCCc1ccc(CCCCCCCCCC)cc1`, the T/C under setting [1] is 94 % of control, the T/C under setting [2] was 92 % of control and the T/C under setting [3] was 99 % of control.

On to `Cl/C(=N\Nc1ccccc1)c1ccccc1`, for which the T/C reads like this: (dose: 3.52 mg/kg/injection, schedule: Q01DX009 (ip), vehicle: saline sonified) 100 % of control; (dose: 5.28 mg/kg/injection, schedule: Q01DX009 (ip), vehicle: saline sonified) 105 % of control; (dose: 7.5 mg/kg/injection, schedule: Q01DX001 (ip), vehicle: Klucel (hydroxypropylcellulose) (HPC)) 98 % of control; (dose: 8.0 mg/kg/injection, schedule: Q01DX009 (ip), vehicle: saline sonified) 100 % of control; (dose: 12.0 mg/kg/injection, schedule: Q01DX009 (ip), vehicle: saline sonified) 108 % of control; (dose: 15.0 mg/kg/injection, schedule: Q01DX001 (ip), vehicle: Klucel (hydroxypropylcellulose) (HPC)) 105 % of control. The T/C (dose: 15.0 mg/kg/injection, schedule: Q01DX009 (ip), vehicle: saline sonified) is 111 % of control; the T/C (dose: 30.0 mg/kg/injection, schedule: Q01DX001 (ip), vehicle: Klucel (hydroxypropylcellulose) (HPC)) is 105 % of control; the T/C (dose: 30.0 mg/kg/injection, schedule: Q01DX009 (ip), vehicle: saline sonified) was 118 % of control.
